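Dose response: 5 concentrations. Exposure: 48 h. Format: 96-well plates. Endpoint: linear interpolation; highest concentration if not reached. The concentration for 50% growth inhibition is given as GI50. TGI: concentration producing complete growth inhibition.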

Holding throughout (assay): NCI tumour cell line growth inhibition, 48 h
In assay [1] the test system is NCI/ADR-RES ovarian.
Assay [2] concerns P388 leukemia.
Assay [3] relates to SN12K1 renal.
Assay [4] relates to XF 498 CNS.
The subject of assay [5] is LXFL 529 NSCLC.
For assay [6], the system named is P388/ADR leukemia.
Assay [7] has as its system RXF-631 renal.

Regarding `COc1ccc(-c2nn(-c3ccc(NC(=O)Nc4ccc(Cl)c(Cl)c4)cc3)cc2-c2ccncc2)cc1Cl`, in assay [1], the GI50 was 2.06 µM and the TGI was greater than 100 µM.

Take `Nc1cc(S(=O)(=O)O)cc2cc(S(=O)(=O)O)c(N=Nc3ccc(-c4ccc(N=Nc5c(S(=O)(=O)O)cc6cc(S(=O)(=O)O)cc(N)c6c5O)cc4)cc3)c(O)c12`: the TGI in assay [1], in assay [2], in assay [3] and in assay [4] was greater than 100 µM throughout.

As to `C/C1=N\NC(=O)c2ccccc2C(=O)N/N=C(\C)c2cccc1n2.O=[N+]([O-])[O-].[Zn+2]`, the TGI in assay [5] is greater than 100 µM.

As for `O=Nc1ccc(O)c2ncccc12`, the TGI in assay [5] stood at 12.9 µM; in assay [1] it was 18.3 µM.

`O=C(O)CC(C(=O)O)C1c2ccccc2-c2ccccc21` (stereo unspecified) yielded a TGI in assay [1] greater than 100 µM.

Consider `CC(C)=CCc1c(O)ccc2c1OC1c3ccc(O)c(CC=C(C)C)c3OCC21` (stereo unspecified), for which the TGI was found to be 32.2 µM in assay [1]; 37.4 µM in assay [2]; 32.2 µM in assay [6]; 20.2 µM in assay [3]; 32.6 µM in assay [4].

As to `O=[N+]([O-])c1ccc(/C=N\Nc2ccc([N+](=O)[O-])cn2)cc1`, the TGI in assay [1] was greater than 100 µM.

The compound `c1ccc(-n2cnnc2-c2nsc3ccccc23)cc1` came in with a TGI in assay [5] greater than 100 µM.

As for `CN1CCC(C(=O)NNc2ccccc2)CC1`, the TGI in assay [5] is 5.69 µM; in assay [4], greater than 100 µM.

For `COc1ccc2[nH]c3c([N+](=O)[O-])ccc(Cl)c3c(=O)c2c1`, the TGI in assay [1] is greater than 71.2 µM.

In assay [1], `Cc1ccc(P(c2ccc(C)cc2)c2ccc(C)cc2)cc1` showed a TGI greater than 100 µM.

For `OC(Cc1ccccc1)(Cc1ccccc1)c1ccccc1`, the TGI in assay [1] was 71.6 µM.

In the case of `C=C(C)C(=O)OC1C(C(C)CCCO)=C(CO)CC2OC(=O)C(=C)C21` (stereo unspecified), the TGI in assay [1] is greater than 100 µM.

In the case of `CC(C)(C)C1(c2ccc(C3(c4ccccc4)Oc4ccccc4S3)[nH]2)Oc2ccccc2S1` (stereo unspecified), the TGI in assay [5], in assay [7] and in assay [4] was greater than 100 µM throughout.

The record behind these values is PubChem BioAssay (NCI).
